In ChEMBL document CHEMBL3046881, “Precocious Metamorphosis-Inducing Activity of 1-Substituted Imidazoles” (1996):

Legend:
Assay type in all cases: functional
[1] = system: Bombyx mori; experiment: Induction of precocious metamorphosis-inducing activity against fourth-instar larvae of Bombyx mori Shunrei x shogetsu at >80 ug treated topically
[2] = system: Bombyx mori; experiment: Induction of precocious metamorphosis-inducing activity against fourth-instar larvae of Bombyx mori Shunrei x shogetsu compound treated topically
[3] = system: Bombyx mori; experiment: Induction of precocious metamorphosis-inducing activity against fourth-instar larvae of Bombyx mori Shunrei x shogetsu at >160 ug treated topically
[4] = system: Bombyx mori; experiment: Induction of precocious metamorphosis-inducing activity against fourth-instar larvae of Bombyx mori Shunrei x shogetsu at 40 ug treated topically
[5] = system: Bombyx mori; experiment: Induction of precocious metamorphosis-inducing activity against fourth-instar larvae of Bombyx mori Shunrei x shogetsu at 40 ug treated topically in presence of 0.01 ug tebufenozide
[6] = system: Bombyx mori; experiment: Induction of precocious metamorphosis-inducing activity against fourth-instar larvae of Bombyx mori Shunrei x shogetsu at 40 ug treated topically in presence of 10 ug methoprene
[7] = system: Bombyx mori; experiment: Induction of precocious metamorphosis-inducing activity against fourth-instar larvae of Bombyx mori Shunrei x shogetsu at >40 ug treated topically

Row | Structure (SMILES) | Activity [1] [%] | ED50 [2] [µg] | also measured
1 | CCCCOc1ccc(-n2ccnc2)cc1 | 0 | >80 | 
2 | CC(C)(C)c1ccc(OCCCn2ccnc2)cc1 | 20 | >80 | 
3 | CCc1ccc(OCCn2ccnc2)cc1 |  | >160 | Activity [3]: 11%
4 | c1ccc(OCCCn2ccnc2)cc1 | 0 | >80 | 
5 | CCc1cccc(OCCCn2ccnc2)c1 |  | 36 | 
6 | c1ccc(Oc2ccc(OCCCn3ccnc3)cc2)cc1 | 0 | >80 | 
7 | c1ccc(COc2ccc(OCCCn3ccnc3)cc2)cc1 |  | >160 | Activity [3]: 0%
8 | CCCCCCOc1ccc(OCCCn2ccnc2)cc1 |  | 36 | 
9 | CCCCOc1ccc(OCCCn2ccnc2)cc1 |  | 27 | 
10 | CCC(C)c1ccc(OCCCn2ccnc2)cc1 (stereo not given) |  | 91 | 
11 | CCCc1ccc(OCCCn2ccnc2)cc1 |  | 16 | Activity [4]: 100%; Activity [5]: 0%; Activity [6]: 0%
12 | Clc1ccc(OCCCn2ccnc2)cc1 | 11 | >80 | 
13 | CCc1ccccc1OCCCn1ccnc1 | 0 | >80 | 
14 | CCc1ccc(OCCCCn2ccnc2)cc1 |  | >160 | Activity [3]: 20%
15 | CCc1ccc(OCCCn2ccnc2)cc1 |  | 17 | 
16 | CCCCCCCCCCOc1ccc(-n2ccnc2)cc1 | 33 | >80 | 
17 | CCCCCCOc1ccc(-n2ccnc2)cc1 |  | 63 | 
18 | CCCCCCCCOc1ccc(-n2ccnc2)cc1 |  | 40 | 
19 | CC(C)=CCCC(C)CCn1ccnc1 (stereo not given) |  | >40 | Activity [7]: 20%
20 | CCCCCCCCn1ccnc1 |  | >40 | Activity [7]: 0%
21 | CCCCCCCCCCCCn1ccnc1 |  | 15 | Activity [4]: 100%; Activity [5]: 0%; Activity [6]: 0%
22 | c1ccc(CCn2ccnc2)cc1 | 0 | >80 | 
23 | CCCCCCCCCCn1ccnc1 |  | 18 | 
24 | CCCCCCCCCCCCCCn1ccnc1 |  | 30 | 
25 | c1ccc(Cn2ccnc2)cc1 [BENZYLIMIDAZOLE] | 0 | >80 | 
